Measured values reported in patent US20090137664A1, “SAURURUS CERNUUS COMPOUNDS THAT INHIBIT CELLULAR RESPONSES TO HYPOXIA” (priority 2003, published 2009).

Assays:
HIF-1 = assay: pTK-HRE3-luc reporter assay, 1,10-phenanthroline-induced HIF-1 activation in T47D cells; assay type: cell-based; conditions: Homo sapiens, read-out: inhibition of HIF-1 activation by 1,10-phenanthroline, 100 nM
Source text: Iron chelators and transition metals (such as cobalt and nickel) can activate HIF-1 and have been used as chemical hypoxia mimetics. […] The expression of the HIF-1α subunit quantitatively determines HIF-1 biological activity (activation of transcription).

pGL3 Control = assay: luciferase expression from control plasmid pGL3 Control; assay type: cell-based, human
Protocol: The chemical structures of active compounds 1 and 2 are shown above. Compound 2 is the known compound manassantin B and 1 is a novel compound of the present invention. […] Similar results are obtained from separate experiments. The IC50 is 3 nM for 2 and 30 nM for 1. Complete inhibition is observed at 10 nM for 2 and 100 nM for 1.

HOP-62 = assay: NCI in vitro cell line screen (SRB), Non-Small Cell Lung Cancer HOP-62; assay type: cell-based
Protocol: (§1) For exemplary purposes, an embodiment of the present invention was tested for activity with respect to certain cancer cell lines. The following Tables show results from in vitro 60-cell line antitumor testing from the US National Cancer Institute Developmental Therapeutics Program (NCI-DTP) on compound 2. The testing was in connection with the NCI's In Vitro Cell Line Screening Project (IVCLSP). Detailed information regarding the experiments and their interpretation is available from the NCI.

HOP-92 = assay: NCI in vitro cell line screen (SRB), Non-Small Cell Lung Cancer HOP-92; assay type: cell-based
Protocol: as §1

HCT-116 = assay: NCI in vitro cell line screen (SRB), Colon Cancer HCT-116; assay type: cell-based
Protocol: as §1

KM12 = assay: NCI in vitro cell line screen (SRB), Colon Cancer KM12; assay type: cell-based
Protocol: as §1

M14 = assay: NCI in vitro cell line screen (SRB), Melanoma M14; assay type: cell-based
Protocol: as §1

A498 = assay: NCI in vitro cell line screen (SRB), Renal Cancer A498; assay type: cell-based
Protocol: as §1

PC-3 = assay: NCI in vitro cell line screen (SRB), Prostate Cancer PC-3; assay type: cell-based
Protocol: as §1

MCF7 = assay: NCI in vitro cell line screen (SRB), Breast Cancer MCF7; assay type: cell-based
Protocol: as §1

NCI/ADR-RES = assay: NCI in vitro cell line screen (SRB), Breast Cancer NCI/ADR-RES; assay type: cell-based
Protocol: as §1
Antitumor agents with tumor-specific selectivity are highly desired, in order to reduce the incidence of non-selective cytotoxicity to patients. […] This is of special importance since this NCI/ADR-RES cell line is resistant to many currently used antitumor agents such as adriamycin, taxol, and others.

[1] = Homo sapiens, read-out: LC50 (the source's name)
[2] = NCI/ADR-RES, Log10 Concentration −4.0 Molar
[3] = NCI/ADR-RES, Log10 Concentration −5.0 Molar
[4] = NCI/ADR-RES, Log10 Concentration −6.0 Molar
[5] = NCI/ADR-RES, Log10 Concentration −7.0 Molar
[6] = NCI/ADR-RES, Log10 Concentration −8.0 Molar

COc1ccc([C@@H](O)[C@@H](C)Oc2ccc([C@H]3O[C@H](c4ccc(O[C@H](C)[C@H](O)c5ccc6c(c5)OCO6)c(OC)c4)[C@H](C)[C@H]3C)cc2OC)cc1OC [Compound 2, manassantin B]
inhibition at 0.1 µM (HIF-1): 44%
luciferase expression from the pGL3-Control plasmid (pGL3 Control; 1,10-phenanthroline experiment (FIG. 5)): Neither compound exerts significant effect
luciferase expression from the control plasmid (pGL3 Control) (pGL3 Control; hypoxia experiment (FIG. 3)): No statistically significant difference
TGI (HOP-62): >1.00E−4 Molar
GI50 (HOP-62; Homo sapiens): 57.3 µM
CC50 (HOP-62; [1]): > 100 µM
Mean Optical Densities (HOP-62; Log10 Concentration −4.0 Molar): 0.739
Percent Growth (HOP-62; Log10 Concentration −4.0 Molar): 44%
Mean Optical Densities (HOP-62; Log10 Concentration −5.0 Molar): 0.893
Percent Growth (HOP-62; Log10 Concentration −5.0 Molar): 68%
Mean Optical Densities (HOP-62; Log10 Concentration −6.0 Molar): 0.971
Percent Growth (HOP-62; Log10 Concentration −6.0 Molar): 81%
Mean Optical Densities (HOP-62; Log10 Concentration −7.0 Molar): 0.982
Percent Growth (HOP-62; Log10 Concentration −7.0 Molar): 82%
Mean Optical Densities (HOP-62; Log10 Concentration −8.0 Molar): 0.924
Percent Growth (HOP-62; Log10 Concentration −8.0 Molar): 73%
TGI (HOP-92): 2.45E−5 Molar
GI50 (HOP-92; Homo sapiens): 1980 nM
LC50 (HOP-92; Homo sapiens): > 100 µM
Mean Optical Densities (HOP-92; Log10 Concentration −4.0 Molar): 0.490
Percent Growth (HOP-92; Log10 Concentration −4.0 Molar): −30%
Mean Optical Densities (HOP-92; Log10 Concentration −5.0 Molar): 0.744
Percent Growth (HOP-92; Log10 Concentration −5.0 Molar): 19%
Mean Optical Densities (HOP-92; Log10 Concentration −6.0 Molar): 0.846
Percent Growth (HOP-92; Log10 Concentration −6.0 Molar): 63%
Mean Optical Densities (HOP-92; Log10 Concentration −7.0 Molar): 0.947
Percent Growth (HOP-92; Log10 Concentration −7.0 Molar): 107%
Mean Optical Densities (HOP-92; Log10 Concentration −8.0 Molar): 0.971
Percent Growth (HOP-92; Log10 Concentration −8.0 Molar): 117%
TGI (HCT-116): >1.00E−4 Molar
GI50 (HCT-116; Homo sapiens): 2250 nM
CC50 (HCT-116; [1]): > 100 µM
Mean Optical Densities (HCT-116; Log10 Concentration −4.0 Molar): 0.329
Percent Growth (HCT-116; Log10 Concentration −4.0 Molar): 15%
Mean Optical Densities (HCT-116; Log10 Concentration −5.0 Molar): 0.498
Percent Growth (HCT-116; Log10 Concentration −5.0 Molar): 32%
Mean Optical Densities (HCT-116; Log10 Concentration −6.0 Molar): 0.770
Percent Growth (HCT-116; Log10 Concentration −6.0 Molar): 60%
Mean Optical Densities (HCT-116; Log10 Concentration −7.0 Molar): 0.867
Percent Growth (HCT-116; Log10 Concentration −7.0 Molar): 70%
Mean Optical Densities (HCT-116; Log10 Concentration −8.0 Molar): 0.978
Percent Growth (HCT-116; Log10 Concentration −8.0 Molar): 81%
TGI (KM12): >1.00E−4 Molar
GI50 (KM12; Homo sapiens): 7.78 µM
CC50 (KM12; [1]): > 100 µM
Mean Optical Densities (KM12; Log10 Concentration −4.0 Molar): 1.287
Percent Growth (KM12; Log10 Concentration −4.0 Molar): 50%
Mean Optical Densities (KM12; Log10 Concentration −5.0 Molar): 1.205
Percent Growth (KM12; Log10 Concentration −5.0 Molar): 44%
Mean Optical Densities (KM12; Log10 Concentration −6.0 Molar): 1.983
Percent Growth (KM12; Log10 Concentration −6.0 Molar): 98%
Mean Optical Densities (KM12; Log10 Concentration −7.0 Molar): 1.876
Percent Growth (KM12; Log10 Concentration −7.0 Molar): 90%
Mean Optical Densities (KM12; Log10 Concentration −8.0 Molar): 1.960
Percent Growth (KM12; Log10 Concentration −8.0 Molar): 96%
TGI (M14): >1.00E−4 Molar
GI50 (M14; Homo sapiens): 4.19 µM
CC50 (M14; [1]): > 100 µM
Mean Optical Densities (M14; Log10 Concentration −4.0 Molar): 0.439
Percent Growth (M14; Log10 Concentration −4.0 Molar): 12%
Mean Optical Densities (M14; Log10 Concentration −5.0 Molar): 0.521
Percent Growth (M14; Log10 Concentration −5.0 Molar): 30%
Mean Optical Densities (M14; Log10 Concentration −6.0 Molar): 0.764
Percent Growth (M14; Log10 Concentration −6.0 Molar): 83%
Mean Optical Densities (M14; Log10 Concentration −7.0 Molar): 0.843
Percent Growth (M14; Log10 Concentration −7.0 Molar): 100%
Mean Optical Densities (M14; Log10 Concentration −8.0 Molar): 0.809
Percent Growth (M14; Log10 Concentration −8.0 Molar): 93%
TGI (A498): >1.00E−4 Molar
GI50 (A498; Homo sapiens): 13.2 µM
CC50 (A498; [1]): > 100 µM
Mean Optical Densities (A498; Log10 Concentration −4.0 Molar): 1.223
Percent Growth (A498; Log10 Concentration −4.0 Molar): 14%
Mean Optical Densities (A498; Log10 Concentration −5.0 Molar): 1.343
Percent Growth (A498; Log10 Concentration −5.0 Molar): 55%
Mean Optical Densities (A498; Log10 Concentration −6.0 Molar): 1.419
Percent Growth (A498; Log10 Concentration −6.0 Molar): 80%
Mean Optical Densities (A498; Log10 Concentration −7.0 Molar): 1.433
Percent Growth (A498; Log10 Concentration −7.0 Molar): 85%
Mean Optical Densities (A498; Log10 Concentration −8.0 Molar): 1.414
Percent Growth (A498; Log10 Concentration −8.0 Molar): 79%
TGI (PC-3): 1.77E−5 Molar
GI50 (PC-3; Homo sapiens): 2370 nM
CC50 (PC-3; [1]): > 100 µM
Mean Optical Densities (PC-3; Log10 Concentration −4.0 Molar): 0.152
Percent Growth (PC-3; Log10 Concentration −4.0 Molar): −30%
Mean Optical Densities (PC-3; Log10 Concentration −5.0 Molar): 0.268
Percent Growth (PC-3; Log10 Concentration −5.0 Molar): 10%
Mean Optical Densities (PC-3; Log10 Concentration −6.0 Molar): 0.588
Percent Growth (PC-3; Log10 Concentration −6.0 Molar): 74%
Mean Optical Densities (PC-3; Log10 Concentration −7.0 Molar): 0.668
Percent Growth (PC-3; Log10 Concentration −7.0 Molar): 90%
Mean Optical Densities (PC-3; Log10 Concentration −8.0 Molar): 0.665
Percent Growth (PC-3; Log10 Concentration −8.0 Molar): 89%
TGI (MCF7): 9.51E−6 Molar
GI50 (MCF7; Homo sapiens): 360 nM
CC50 (MCF7; [1]): > 100 µM
Mean Optical Densities (MCF7; Log10 Concentration −4.0 Molar): 0.191
Percent Growth (MCF7; Log10 Concentration −4.0 Molar): −40%
Mean Optical Densities (MCF7; Log10 Concentration −5.0 Molar): 0.316
Percent Growth (MCF7; Log10 Concentration −5.0 Molar): −1%
Mean Optical Densities (MCF7; Log10 Concentration −6.0 Molar): 0.758
Percent Growth (MCF7; Log10 Concentration −6.0 Molar): 42%
Mean Optical Densities (MCF7; Log10 Concentration −7.0 Molar): 0.937
Percent Growth (MCF7; Log10 Concentration −7.0 Molar): 60%
Mean Optical Densities (MCF7; Log10 Concentration −8.0 Molar): 0.959
Percent Growth (MCF7; Log10 Concentration −8.0 Molar): 62%
inhibition of the NCI/ADR-RES breast tumor cell line (NCI/ADR-RES): potently inhibits
GI50 (NCI/ADR-RES; Homo sapiens, NCI/ADR-RES): 107 nM
CC50 (NCI/ADR-RES; Homo sapiens, NCI/ADR-RES, read-out: LC50 (the source's name)): > 100 µM
TGI (NCI/ADR-RES; NCI/ADR-RES): >1.00E−4 Molar
Mean Optical Densities (NCI/ADR-RES; [2]): 0.982
Percent Growth (NCI/ADR-RES; [2]): 5%
Mean Optical Densities (NCI/ADR-RES; [3]): 1.133
Percent Growth (NCI/ADR-RES; [3]): 20%
Mean Optical Densities (NCI/ADR-RES; [4]): 1.389
Percent Growth (NCI/ADR-RES; [4]): 45%
Mean Optical Densities (NCI/ADR-RES; [5]): 1.445
Percent Growth (NCI/ADR-RES; [5]): 50%
Mean Optical Densities (NCI/ADR-RES; [6]): 1.518
Percent Growth (NCI/ADR-RES; [6]): 57%
